According to patent US11508483B2, “Method of identifying a subgroup of patients suffering from dcSSc which benefits from a treatment with sGC stimulators and sGC activators in a higher degree than a control group” (ADVERIO PHARMA GMBH, priority 2018, dated 2022):

Assays:
[1] = test system: TGFβ-induced skin fibrosis; details: mouse, in vivo; cited from earlier work
[2] = test system: human dermal fibroblasts of SSc patients; details: in vitro; cited from earlier work
patients with dcSSc [3] = test: RISE-SSc clinical study: lung function, FVC % predicted; assay type: in vivo, human; details: for Difference in LSMeans with regard to FVC % predicted: Riociguat vs placebo, week 52
From the text: Pulmonary physiologic measures, particularly FVC, have frequently been used as surrogate endpoints for SSc-ILD and IPF. […] Also in IPF measurable decline in FVC is correlated with mortality. […] The primary efficacy outcome measure was the change in mRSS from baseline to week 52. Key secondary efficacy measure was Combined Response Index for Systemic Sclerosis (CRISS).

patients with dcSSc [4] = test: RISE-SSc clinical study: modified Rodnan skin score (mRSS); assay type: in vivo, human; set-up: key to Difference in LSMeans with regard to mRSS: mRSS points (skin thickness score, max 51); details: for Difference in LSMeans with regard to mRSS: Riociguat vs placebo, week 52; for mean change of mRSS for Riociguat compared to placebo: baseline to week 52
From the text: The modified Rodnan skin score (mRSS) is a measure of skin thickness and is used as a primary or secondary outcome measure in clinical trials of systemic sclerosis. The maximum mRSS possible is 51. Standardization of the modified Rodnan skin score for use in clinical trials of systemic sclerosis is described in Khanna, D. et al., 2017b. […] The primary efficacy outcome measure was the change in mRSS from baseline to week 52. Key secondary efficacy measure was Combined Response Index for Systemic Sclerosis (CRISS).

patients with dcSSc [5] = test: RISE-SSc clinical study: Health Assessment Questionnaire disability index (HAQ-DI); assay type: in vivo, human; details: Riociguat vs placebo, week 52
Description: The Health Assessment Questionnaire Disability Index (HAQ-DI) is a well-accepted measure of physical function for various rheumatic diseases, and it is the most widely employed and reported measure for assessing physical function in SSc. As a post hoc analysis in study 16277, the percentage of patients stratified by HAQ-DI categorized change was also performed. Clinically meaningful disease improvement was defined as a decrease in HAQ-DI of more than −0.21 from baseline to week 52; stabilization and/or disease worsening were defined as a change in HAQ-DI less than or equal to −0.21 from baseline to week 52. […] The primary efficacy outcome measure was the change in mRSS from baseline to week 52. Key secondary efficacy measure was Combined Response Index for Systemic Sclerosis (CRISS).

[6] = test system: systemic sclerosis patients; details: cited from earlier work
[7] = subgroup FVC % predicted at baseline 50-75
[8] = subgroup FVC % predicted at baseline >75
[9] = subgroup anti-RNA polymerase III autoantibodies negative
[10] = subgroup anti-RNA polymerase III autoantibodies positive

In the case of `Nc1nc(-c2nn(Cc3ccccc3F)c3ncccc23)ncc1C1CC1` [BAY 41-2272], the “progression of TGFβ-induced skin fibrosis” value [1] is listed as “prevented the progression” and the collagen production [2] is listed as “reduce collagen production”.
For `COC(=O)N(C)c1c(N)nc(-c2nn(Cc3ccccc3F)c3ncccc23)nc1N` [Riociguat, methyl 4,6-diamino-2-[1-(2-fluorobenzyl)-1H-pyrazolo[3,4-b]pyridin-3-yl]-5-pyrimidinyl(methyl)carbamate], the collagen production [2] is given as “reduce collagen production”, the “change of lung function (FVC % predicted) at week 52 compared to baseline” value (patients with dcSSc [3]; Riociguat group, dcSSc patients positive for anti-RNA polymerase III autoantibodies) is given as “+1.2” and the “Difference in LSMeans with regard to FVC % predicted” value (from here on “Difference … to FVC % predicted”) (patients with dcSSc [3]; [7]) is given as 9.2. The “Difference … to FVC % predicted” value (patients with dcSSc [3]; [8]) was −1.3, the “Difference … to FVC % predicted” value (patients with dcSSc [3]; subgroup ILD at baseline no) was −1.7 and the “Difference … to FVC % predicted” value (patients with dcSSc [3]; subgroup ILD at baseline yes) was 5.1. For the same compound, the “Difference … to FVC % predicted” value (patients with dcSSc [3]; [9]) was −0.9, the “Difference … to FVC % predicted” value (patients with dcSSc [3]; [10]) was 3.5 and the “Difference … to FVC % predicted” value (patients with dcSSc [3]; subgroup hsCRP >10 mg/L) was 2.4. For the same compound, the “Difference … to FVC % predicted” value (patients with dcSSc [3]; subgroup hsCRP ≤10 mg/L) was −0.5, the “Difference in LSMeans with regard to mRSS” value (“Difference … to mRSS” below) (patients with dcSSc [4]; [7]) was −8.0 and the “Difference … to mRSS” value (patients with dcSSc [4]; [8]) was −1.7. For the same compound, the “Difference … to mRSS” value (patients with dcSSc [4]; [9]) was 0.3, the “Difference … to mRSS” value (patients with dcSSc [4]; [10]) was −10.5 and the “Difference … to mRSS” value (patients with dcSSc [4]; subgroup hsCRP >3 mg/L) was −5.8. For the same compound, the “Difference … to mRSS” value (patients with dcSSc [4]; subgroup hsCRP >10 mg/L) was −7.5, the “Difference … to mRSS” value (patients with dcSSc [4]; subgroup hsCRP ≤3 mg/L) was 1.0 and the “Difference … to mRSS” value (patients with dcSSc [4]; subgroup hsCRP ≤10 mg/L) was −1.2. The “mean change of mRSS for Riociguat compared to placebo” value (“mean change of mRSS for Riociguat” below) (patients with dcSSc [4]; patients with FVC % predicted at baseline of 50-75) was −7.9 units, the “mean change of mRSS for Riociguat” value (patients with dcSSc [4]; patients with hsCRP>10 mg/L) was −7.5 units and the “mean change of mRSS for Riociguat” value (patients with dcSSc [4]; patients with hsCRP>3) was −5.8 units. For the same compound, the “mean change of mRSS for Riociguat” value (patients with dcSSc [4]; patients ≥65 y of age) was −6.7 units, the “Difference in LSMeans with regard to HAQ-DI” value (“Difference … to HAQ-DI” below) (patients with dcSSc [5]; [7]) was −0.22 and the “Difference … to HAQ-DI” value (patients with dcSSc [5]; [8]) was −0.07. For the same compound, the “Difference … to HAQ-DI” value (patients with dcSSc [5]; [9]) was 0.02, the “Difference … to HAQ-DI” value (patients with dcSSc [5]; [10]) was −0.44 and the “Difference … to HAQ-DI” value (patients with dcSSc [5]; subgroup hsCRP >10 mg/L) was −0.13. The “Difference … to HAQ-DI” value (patients with dcSSc [5]; subgroup hsCRP ≤10 mg/L) was −0.03.
In the case of “Tocilizumab: monoclonal anti-IL-6 receptor-α antibody approved e.g. for the treatment of patients with rheumatoid arthritis”, the “skin score and FVC in placebo-treated patients who transitioned to tocilizumab” value ([6]; open-label period) is listed as “skin score improvement and FVC stabilization” and the “influence of anti-RNA polymerase III autoantibody profile on the effect on change in mRSS or ppFVC” value ([6]; week 48) is listed as “little clinically meaningful influence”.
